Reference: patent US20220054513A1, “COMBINATION COMPOSITIONS COMPRISING A BETA-LACTAMASE INHIBITOR” (VenatoRx Pharmaceuticals, Inc., priority 2018, published 2022)

System: cefepime-resistant clinical isolates of Enterobacteriaceae and P. aeruginosa
Experiment: neutropenic murine thigh infection model, human simulated regimens
Format: in vivo, mice
Conditions: human simulated regimen (HSR) of 2 g cefepime alone q8 h; at 24 h; 30 strains
Source text: The 2 g:0.5 g dose of cefepime:Compound 1 which is planned for clinical efficacy studies is supported by neutropenic murine thigh infection model studies using 30 cefepime-resistant clinical isolates of Enterobacteriaceae and P. aeruginosa.

## CO/N=C(\C(=O)N[C@@H]1C(=O)N2C(C(=O)[O-])=C(C[N+]3(C)CCCC3)CS[C@H]12)c1csc(N)n1 [FEP, cefepime]
  growth on average compared to the T=0 control: approximately 2.7 log10 CFU/thigh
